Reference: PubChem BioAssay AID1259407 (Chemical Carcinogenesis Research Information System (CCRIS), 2018)
The source made the active and inactive calls. The rule behind the calls is not given here.

Test system: CCRIS mutagenicity, Ames/micronucleus/aberration tests
Test: CCRIS mutagenicity studies
Details: Test System: AMES SALMONELLA TYPHIMURIUM

## CC(O)CCl (configuration not stated)
Strain/Indicator: TA97, Metabolic Activation: HAMSTER, LIVER, S-9, AROCLOR 1254 (10%), Method: PREINCUBATION
  mutagenic call: inactive; negative
Strain/Indicator: TA97, Metabolic Activation: NONE, Method: PREINCUBATION
  mutagenic call: inactive; negative
Strain/Indicator: TA97, Metabolic Activation: RAT, LIVER, S-9, AROCLOR 1254 (10%), Method: PREINCUBATION
  mutagenic call: inactive; negative
Strain/Indicator: TA98, Metabolic Activation: HAMSTER LIVER S-9, AROCLOR 1254 (10%), Method: PREINCUBATION
  mutagenic call: inactive; negative
Strain/Indicator: TA98, Metabolic Activation: HAMSTER, LIVER, S-9, AROCLOR 1254 (10%), Method: PREINCUBATION
  mutagenic call: inactive; negative
Strain/Indicator: TA98, Metabolic Activation: NONE, Method: FLUCTUATION (MICROTITER)
  mutagenic call: inactive; negative
Strain/Indicator: TA98, Metabolic Activation: NONE, Method: PREINCUBATION
  mutagenic call: inactive; negative
Strain/Indicator: TA98, Metabolic Activation: RAT LIVER S-9, AROCLOR 1254 (10%), Method: PREINCUBATION
  mutagenic call: inactive; negative
Strain/Indicator: TA98, Metabolic Activation: RAT LIVER S-9, AROCLOR 1254, Method: FLUCTUATION (MICROTITER)
  mutagenic call: inactive; negative
Strain/Indicator: TA98, Metabolic Activation: RAT, LIVER, S-9, AROCLOR 1254 (10%), Method: PREINCUBATION
  mutagenic call: inactive; negative
Strain/Indicator: TA100, Metabolic Activation: HAMSTER, LIVER, S-9, AROCLOR 1254 (10%), Method: PREINCUBATION
  mutagenic call: inactive; negative
Strain/Indicator: TA100, Metabolic Activation: NONE, Method: PREINCUBATION
  mutagenic call: inactive; negative
Strain/Indicator: TA100, Metabolic Activation: RAT, LIVER, S-9, AROCLOR 1254 (10%), Method: PREINCUBATION
  mutagenic call: inactive; negative
Strain/Indicator: TA1535, Metabolic Activation: HAMSTER LIVER S-9, AROCLOR 1254 (10%), Method: PREINCUBATION
  mutagenic call: active; positive
Strain/Indicator: TA1535, Metabolic Activation: HAMSTER, LIVER, S-9, AROCLOR 1254 (10%), Method: PREINCUBATION
  mutagenic call: active; positive
Strain/Indicator: TA1535, Metabolic Activation: NONE, Method: PREINCUBATION
  mutagenic call: active; positive
Strain/Indicator: TA1535, Metabolic Activation: RAT LIVER S-9, AROCLOR 1254 (10%), Method: PREINCUBATION
  mutagenic call: active; positive
Strain/Indicator: TA1535, Metabolic Activation: RAT, LIVER, S-9, AROCLOR 1254 (10%), Method: PREINCUBATION
  mutagenic call: active; positive
Strain/Indicator: TA1537, Metabolic Activation: HAMSTER LIVER S-9, AROCLOR 1254 (10%), Method: PREINCUBATION
  mutagenic call: inactive; negative
Strain/Indicator: TA1537, Metabolic Activation: HAMSTER, LIVER, S-9, AROCLOR 1254 (10%), Method: PREINCUBATION
  mutagenic call: inactive; negative
Strain/Indicator: TA1537, Metabolic Activation: NONE, Method: FLUCTUATION (MICROTITER)
  mutagenic call: inactive; negative
Strain/Indicator: TA1537, Metabolic Activation: NONE, Method: PREINCUBATION
  mutagenic call: inactive; negative
Strain/Indicator: TA1537, Metabolic Activation: RAT LIVER S-9, AROCLOR 1254 (10%), Method: PREINCUBATION
  mutagenic call: inactive; negative
Strain/Indicator: TA1537, Metabolic Activation: RAT LIVER S-9, AROCLOR 1254, Method: FLUCTUATION (MICROTITER)
  mutagenic call: inactive; negative
Strain/Indicator: TA1537, Metabolic Activation: RAT, LIVER, S-9, AROCLOR 1254 (10%), Method: PREINCUBATION
  mutagenic call: inactive; negative
Strain/Indicator: TA7001, Metabolic Activation: NONE, Method: FLUCTUATION (MICROTITER)
  mutagenic call: inactive; negative
Strain/Indicator: TA7001, Metabolic Activation: RAT LIVER S-9, AROCLOR 1254, Method: FLUCTUATION (MICROTITER)
  mutagenic call: inactive; negative
Strain/Indicator: TA7002, Metabolic Activation: NONE, Method: FLUCTUATION (MICROTITER)
  mutagenic call: inactive; negative
Strain/Indicator: TA7002, Metabolic Activation: RAT LIVER S-9, AROCLOR 1254, Method: FLUCTUATION (MICROTITER)
  mutagenic call: inactive; negative
Strain/Indicator: TA7003, Metabolic Activation: NONE, Method: FLUCTUATION (MICROTITER)
  mutagenic call: inactive; negative
Strain/Indicator: TA7003, Metabolic Activation: RAT LIVER S-9, AROCLOR 1254, Method: FLUCTUATION (MICROTITER)
  mutagenic call: inactive; negative
Strain/Indicator: TA7004, Metabolic Activation: NONE, Method: FLUCTUATION (MICROTITER)
  mutagenic call: inactive; negative
Strain/Indicator: TA7004, Metabolic Activation: RAT LIVER S-9, AROCLOR 1254, Method: FLUCTUATION (MICROTITER)
  mutagenic call: inactive; negative
Strain/Indicator: TA7005, Metabolic Activation: NONE, Method: FLUCTUATION (MICROTITER)
  mutagenic call: inactive; negative
Strain/Indicator: TA7005, Metabolic Activation: RAT LIVER S-9, AROCLOR 1254, Method: FLUCTUATION (MICROTITER)
  mutagenic call: inactive; negative
Strain/Indicator: TA7006, Metabolic Activation: NONE, Method: FLUCTUATION (MICROTITER)
  mutagenic call: inactive; negative
Strain/Indicator: TA7006, Metabolic Activation: RAT LIVER S-9, AROCLOR 1254, Method: FLUCTUATION (MICROTITER)
  mutagenic call: inactive; negative
